In the assay the target is protein A (a kinase). Nature of the assay: Inhibition of protein A kinase activity (33P-ATP peptide phosphorylation, filter, scintillation counting). Format: biochemical. The note with it: for IC50: Table 2, 10 μM [gamma-33P]-ATP, 10 μM peptide substrate, 40 minutes at room temperature; for pIC50 (experimental): Table 3, given with negative sign. Here is the method:
The hit compound derivatives synthesized as real compounds through Example 3 were evaluated for ability to inhibit the activity of protein A (a kinase).
Specifically, […] of protein A was incubated along with 8 mM MOPS (pH 7.0), 0.2 mM EDTA, 10 mM magnesium acetate, 10 μM [gamma-33P]-ATP, and 10 μM […], which is a phosphorylation target peptide. After incubation at room temperature for 40 minutes, the reaction was terminated by adding phosphoric acid to a final concentration of 0.5%. The reaction mixture was spotted onto a filter, then washed four times with 0.425% phosphoric acid for 4 minutes each. After washing once with methanol, the sample was dried and measured for radioactivity (scintillation counting) to assess phosphorylation (i.e., […](p)EDEEE peptide detection).

The record followed here is patent publication US20250299772A1, “METHOD FOR GENERATION OF CHEMICAL DERIVATIVES AGAINST TARGET PROTEIN TO BUILD AI DRUG PLATFORM” (SYNTEKABIO, INC., priority 2024, published 2025).

For orientation: IC50 means the midpoint of a concentration-inhibition curve. For the compound `O=C(Nc1cc(-c2cccc(NS(=O)(=O)N3CCOCC3)c2)n[nH]1)c1cc2nccnc2s1` [Compound D0025], the IC50 came out at 62 nM and the pIC50 (experimental) came out at 7.21.
For `C#CC(=O)Nc1cccc(-c2cc(NC(=O)c3ccc4nonc4c3)[nH]n2)c1` [Compound D0054], in that order: 26 nM and 7.58.
For `CC(C)(C)C(=O)Nc1cccc(-c2cc(NC(=O)c3nc4cccnc4s3)[nH]n2)c1` [Compound D0065], in that order: 119 nM and 6.92.
For `CC#CC(=O)Nc1cccc(-c2cc(NC(=O)c3cc4cc(OC)ccc4o3)[nH]n2)c1` [Compound D0069], in that order: 30 nM and 7.52.
Regarding `O=C(Nc1cc(-c2cccc(NS(=O)(=O)N3CCOCC3)c2)n[nH]1)c1cccc2ncsc12` [Compound D0083], the IC50 worked out at 129 nM and the pIC50 (experimental) was found to be 6.89.
For `C#CC(=O)Nc1cccc(-c2cc(NC(=O)c3cc4nccnc4s3)[nH]n2)c1` [Compound D0101], in that order: 13 nM and 7.89.
`C#CC(=O)Nc1cccc(-c2cc(NC(=O)c3cc4ccc(O)cc4o3)[nH]n2)c1` [Compound D0135]: half-maximal inhibition (IC50) required 63 nM and the pIC50 (experimental) was determined as 7.2.
For `C#CC(=O)Nc1cccc(-c2cc(NC(=O)c3cc4ncc(O)nc4s3)[nH]n2)c1` [Compound D0137], in that order: 40 nM and 7.4.
For `C#CC(=O)Nc1cccc(-c2cc(NC(=O)c3cc4ccc(O)cc4o3)[nH]n2)c1` [Compound D0139], in that order: 22 nM and 7.66.
For `C#CC(=O)Nc1cccc(-c2cc(NC(=O)c3cc4c(s3)CCOC4)[nH]n2)c1` [Compound D0157], in that order: 4 nM and 8.4.
`CC#CC(=O)Nc1cccc(-c2cc(NC(=O)c3cc4c(s3)CCOC4)[nH]n2)c1` [Compound D1008] showed an IC50 of 19 nM and a pIC50 (experimental) of 7.72.
For the compound `CC#CC(=O)Nc1cccc(-c2cc(NC(=O)c3cc4c(s3)CCNC4)[nH]n2)c1` [Compound D1010], the IC50 was 31 nM and the pIC50 (experimental) was 7.51.
In turn, `CC#CC(=O)Nc1cccc(-c2cc(NC(=O)c3cc4c(s3)CC(=O)NC4)[nH]n2)c1` [Compound D1011] displayed an IC50 of 8 nM and a pIC50 (experimental) of 8.1.
In turn, `C#CC(=O)Nc1cccc(-c2cc(NC(=O)c3cc4ncc(C(=O)O)nc4s3)[nH]n2)c1` [DM009] registered an IC50 of 7 nM and a pIC50 (experimental) of 8.15.
For `C#CC(=O)Nc1cccc(-c2cc(NC(=O)c3cc4ncc(C(N)=O)nc4s3)[nH]n2)c1` [DM010], in that order: 10 nM and 8.
